The source of these data is US20140023611A1 (priority 2010, published 2014).

SMILES strings stand for the structures. Several values for one entry are separate records, joined by “and”; a condition that tells them apart may be missing. Identical values can stand only once. Counter-ions that a name gives are not always drawn.

A short description of series [1]: Stability of compounds in simulated intestinal fluid (SIF). It is filed as in vitro ADME. To be noted: simulated intestinal fluid (3 mg/mL pancreatin), incubation time 6 hr, relative to t=0. In short, it runs like this: (§1)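 Compounds at […] were incubated 3 or 6 hr in USP simulated gastric fluid with 3 mg/mL pepsin or simulated intestinal fluid with 3 mg/mL pancreatin. Remaining compound was quantified by HPLC-UV or HPLC-MS peak area % and reported as percent of the t=0 level in the same medium.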

The nature of series [2]: Fecal recovery of orally administered compounds. It is filed as in vivo, Sprague-Dawley rats. To be noted: Structure (I) examples, Table 16; rat, oral gavage, feces collected until 48 hr after dosing. In short, it runs like this: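 After oral dosing, feces collected in metabolic cages up to 48 h, lyophilized and ground. Duplicate weighed portions per animal extracted with organic solvent under non-compound-optimized conditions, so recovery may be a minimal estimate.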

Series [3] has as its target T1, human NaP2b (SLC34A2) (Homo sapiens, UniProt O95436).
T1 construct: host or cells: HEK293
T1 sequence (O95436 1-690): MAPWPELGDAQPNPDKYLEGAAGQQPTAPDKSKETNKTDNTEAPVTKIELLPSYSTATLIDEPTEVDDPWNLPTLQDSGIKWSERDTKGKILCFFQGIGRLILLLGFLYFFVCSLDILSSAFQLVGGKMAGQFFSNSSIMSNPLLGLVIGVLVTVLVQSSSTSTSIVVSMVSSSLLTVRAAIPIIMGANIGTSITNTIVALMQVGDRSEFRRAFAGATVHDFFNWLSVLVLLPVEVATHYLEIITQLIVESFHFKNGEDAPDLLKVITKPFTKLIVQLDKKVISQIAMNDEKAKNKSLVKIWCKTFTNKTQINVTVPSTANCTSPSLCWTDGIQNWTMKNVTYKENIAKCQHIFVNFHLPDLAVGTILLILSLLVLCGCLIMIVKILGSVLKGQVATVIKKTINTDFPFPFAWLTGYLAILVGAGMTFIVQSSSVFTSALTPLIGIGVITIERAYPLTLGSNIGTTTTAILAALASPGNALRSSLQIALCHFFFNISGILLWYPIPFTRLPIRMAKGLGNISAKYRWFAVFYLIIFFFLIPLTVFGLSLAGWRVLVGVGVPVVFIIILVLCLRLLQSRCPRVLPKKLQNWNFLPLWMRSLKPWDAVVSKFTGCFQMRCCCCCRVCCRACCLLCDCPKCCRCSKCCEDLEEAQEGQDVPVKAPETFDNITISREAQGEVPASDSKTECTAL
The series is described as follows: Inhibition of NaP2b-mediated Pi (33P) uptake in transfected HEK293 cells, human NaP2b. It is filed as cell-based. The following applies: read-out: pIC50 range for human NaP2b (converted). Summed up:
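Uptake of 33P-phosphate (100 uM KH2PO4 carrier, sodium vs choline buffer, pH 7.4) measured after 3-30 min at room temperature, with test compound at twelve concentrations from 0.1 nM to 30 uM in duplicate. Cells were HEK293 transfected with mutated human NaP2b (Thr insertion after 37, N39D) and treated with a PiT-silencing agent. pIC50 values from scintillation counts.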

The nature of series [4]: Stability of compounds in simulated gastric fluid (SGF). It is filed as in vitro ADME. The following applies: simulated gastric fluid (3 mg/mL pepsin), incubation time 6 hr, relative to t=0. Summed up:
as §1

On to `O=C(O)CCOCCOCCOCCNC(=O)c1cccc2c1ccn2Cc1cccc(C(=O)Nc2ccc(N3CCCCC3)cc2-c2cc(C(=O)N[C@H]3CCCc4ccccc43)ccn2)c1` [Example 181, (S)-1-oxo-1-(1-(3-(4-(piperidin-1-yl)-2-(4-(1,2,3,4-tetrahydronaphthalen-1-ylcarbamoyl)pyridin-2-yl)phenylcarbamoyl)benzyl)-1H-indol-4-yl)-5,8,11-trioxa-2-azatetradecan-14-oic acid], for which, in series [1], the “% remaining, SIF” value is above 80%. In series [2], the “% recovered in feces” value is reported as above 80%. The IC50 in series [3] is below 1000 nM. For the same compound, in series [4], the “% remaining, SGF” value is above 80%.

For `CCCN(CCC)c1ccc(NC(=O)c2cccc(COCCOCCOCCOCCOCCOCCOCCOCCOC)c2)c(-c2cc(C(=O)NCc3cccc(C(F)(F)F)c3)ccn2)c1` [Example 200, 2-(2-(3-(2,5,8,11,14,17,20,23,26-nonaoxaheptacosyl)benzamido)-5-(dipropylamino)phenyl)-N-(3-(trifluoromethyl)benzyl)isonicotinamide], in series [1], the “% remaining, SIF” value was above 80%. The “% recovered in feces” value in series [2] is 20-80%. Also, the IC50 in series [3] is below 1000 nM. For the same compound, the “% remaining, SGF” value in series [4] is above 80%.

As to `CCN(CC)c1ccc(NC(=O)c2cccc(CCCOCCOCCOCCOCCC(=O)O)c2)c(-c2cc(C(=O)NCc3cccc(C(F)(F)F)c3)ccn2)c1` [Example 251, 16-(3-(4-(diethylamino)-2-(4-(3-(trifluoromethyl)benzylcarbamoyl)pyridin-2-yl)phenylcarbamoyl)phenyl)-4,7,10,13-tetraoxahexadecan-1-oic acid], the “% remaining, SIF” value in series [1] is on record as above 80%. Further, the “% recovered in feces” value in series [2] was above 80%. In series [3], the IC50 was below 1000 nM. In addition, the “% remaining, SGF” value in series [4] is above 80%.

With `CCN(CC)c1ccc(NC(=O)c2cccc(CCCOCCOCCOCCOCCOCCOCCOCCOCCOC)c2)c(-c2cc(C(=O)N[C@H]3CCCc4ccccc43)ccn2)c1` [Example 261, (S)-2-(2-(3-(2,5,8,11,14,17,20,23,26-nonaoxanonacosan-29-yl)benzamido)-5-(diethylamino)phenyl)-N-(1,2,3,4-tetrahydronaphthalen-1-yl)isonicotinamide], the “% remaining, SIF” value in series [1] was 60-80% and >80%. For the same compound, the “% recovered in feces” value in series [2] is given as below 20%. In series [3], the IC50 was below 1000 nM. For the same compound, the “% remaining, SGF” value in series [4] is reported as above 80%.

Take `CCN(CC)c1ccc(NC(=O)c2cccc(CSCCOCCOCCOCCOCCOCCOCCOCCOC)c2)c(-c2cc(C(=O)NCc3cccc(C(F)(F)F)c3)ccn2)c1` [Example 265, 2-(2-(3-(2,5,8,11,14,17,20,23-octaoxa-26-thiaheptacosan-27-yl)benzamido)-5-(diethylamino)phenyl)-N-(3-(trifluoromethyl)benzyl)isonicotinamide]: in series [1], the “% remaining, SIF” value was above 80%. Besides, the “% recovered in feces” value in series [2] is below 20%. Further, in series [3], the IC50 is below 1000 nM. Further, the “% remaining, SGF” value in series [4] was above 80%.

For `CCN(CC)c1ccc(NC(=O)c2cccc(CCCOCCOCCOCCOCCOCCOCCOCCOCCOC)c2)c(-c2cc(C(=O)NCc3cccc(C(F)(F)F)c3)ccn2)c1` [Example 269, 2-(2-(3-(2,5,8,11,14,17,20,23,26-nonaoxanonacosan-29-yl)benzamido)-5-(diethylamino)phenyl)-N-(3-(trifluoromethyl)benzyl)isonicotinamide], the “% remaining, SIF” value in series [1] was above 80%. Besides, the “% recovered in feces” value in series [2] is listed as below 20%. In series [3], the IC50 is below 1000 nM. In addition, the “% remaining, SGF” value in series [4] is above 80%.

`CCN(CC)c1ccc(NC(=O)c2cccc(CSCCOCCOCCOCCOCCOCCOCCOCCOC)c2)c(-c2cc(C(=O)N[C@H]3CCCc4ccccc43)ccn2)c1` [Example 286, (S)-2-(2-(3-(2,5,8,11,14,17,20,23-octaoxa-26-thiaheptacosan-27-yl)benzamido)-5-(diethylamino)phenyl)-N-(1,2,3,4-tetrahydronaphthalen-1-yl)isonicotinamide]: the “% remaining, SIF” value in series [1] was above 80%. Moreover, the “% recovered in feces” value in series [2] is listed as below 20%. In addition, the IC50 in series [3] was below 1000 nM. For the same compound, the “% remaining, SGF” value in series [4] is listed as above 80%.

For `CCN(CC)c1ccc(NC(=O)c2cccc(C(=O)N(C)CCN(CCOC)CCOCCOCCOCCOCCOCCOCCOC)c2)c(-c2cc(C(=O)NCc3cccc(C(F)(F)F)c3)ccn2)c1` [Example 335, N^1-(4-(Diethylamino)-2-(4-(3-(trifluoromethyl)benzylcarbamoyl)pyridin-2-yl)phenyl)-N^3-(23-(2-methoxyethyl)-2,5,8,11,14,17,20-heptaoxa-23-azapentacosan-25-yl)-N^3-methylisophthalamide, trifluoroacetate], in series [1], the “% remaining, SIF” value is on record as above 80%. Also, the “% recovered in feces” value in series [2] is given as above 80%. Moreover, in series [3], the IC50 is 1000 to 7940 nM. Besides, the “% remaining, SGF” value in series [4] is reported as above 80%.
